Data from PMC8518382, “Identification of a Bromodomain‐like Region in 15‐Lipoxygenase‐1 Explains Its Nuclear Localization” (Angewandte Chemie (International Ed. in English), 2021).
Values joined by “and” are separate entries in the source; they are usually repeats but may differ in a detail not shown here. Identical values can stand only once.

Biological target: T1, 15-LOX-1 (Homo sapiens, UniProt P16050)
T1 sequence (P16050 1-662): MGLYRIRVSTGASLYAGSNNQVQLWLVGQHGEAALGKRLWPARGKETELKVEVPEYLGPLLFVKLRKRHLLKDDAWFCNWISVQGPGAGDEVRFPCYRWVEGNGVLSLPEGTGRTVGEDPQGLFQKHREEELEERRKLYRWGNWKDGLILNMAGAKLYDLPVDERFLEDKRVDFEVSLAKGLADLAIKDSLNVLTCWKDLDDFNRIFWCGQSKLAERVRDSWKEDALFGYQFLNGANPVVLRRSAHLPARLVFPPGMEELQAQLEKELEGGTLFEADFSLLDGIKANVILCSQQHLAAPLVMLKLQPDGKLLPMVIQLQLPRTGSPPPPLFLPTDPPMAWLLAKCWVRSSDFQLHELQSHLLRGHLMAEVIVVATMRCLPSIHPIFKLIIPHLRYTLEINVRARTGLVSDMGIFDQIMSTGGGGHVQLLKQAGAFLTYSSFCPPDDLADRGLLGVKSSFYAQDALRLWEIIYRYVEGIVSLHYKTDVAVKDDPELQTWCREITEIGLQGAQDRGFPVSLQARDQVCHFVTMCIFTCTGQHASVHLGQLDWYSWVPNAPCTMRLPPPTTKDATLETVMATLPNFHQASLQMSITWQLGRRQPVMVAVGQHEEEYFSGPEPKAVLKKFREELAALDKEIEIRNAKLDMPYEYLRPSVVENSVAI
Assay: 15-LOX-1 activity assay, UV-absorbance change for linoleic acid conversion
Format: biochemical
Parameters: His-tag (N); made in house; host or cells: E. coli BL21(DE3)
Settings: for Hill-slope: linoleic acid conversion assay; for IC50: 10 min pre-incubation at RT, 25 µM linoleic acid, absorbance 234 nm
Text: In brief, an alkyne‐alcohol was linked to propargyl halide (Cl or Br) using a CuI‐catalyzed Sonogashira cross‐coupling reaction followed by biotinylation of the alcohol using EDCI and HOBt as reagents to provide the desired biotinylated bis‐alkyne probes. The biotinylated bis‐alkynes were subjected to 15‐LOX‐1 binding studies using a 15‐LOX‐1 activity assay based on the UV‐absorbance change for linoleic acid conversion (Figure 1 a). […] Next, we evaluated the effect of the extension of the terminal ethyl substitution of inhibitor 1. […]
empty plasmid was proceed with the same procedure, which lysate was used as the negative control (referred as BL21 control later) in 15-LOX-1 recombinant enzyme inhibition studies.
1.3. Purification of recombinant human 15-LOX-1
The 15-LOX-1 with N-terminal his-tag was produced as described above. After removing the cell debris, the supernatant containing 15-LOX-1 was loaded on a Ni-NTA column (Qiagen, Hilden, Germany) pre-equilibrated with LOX lysis buffer. The column was washed twice with 30 column volume of LOX lysis buffer, and once with 30 column volume of wash buffer (25 mM HEPES, 300 mM NaCl, 25 mM Imidazole, pH 8.0). Later, the 15-LOX-1 was eluted twice with 2 column volume of elution buffer (25 mM HEPES, 300 mM NaCl, 250 mM Imidazole, pH 8.0), followed by desalting with a PD-10 column (Sigma-Aldrich) with LOX storage buffer (25 mM HEPES, 20% Glycerol, pH 7.5). The desalted 15-LOX-1 was further purified and concentrated with Vivaspin Turbo 15 (30.000 MWCO). The protein concentration was determined by Nanodrop spectrophotometry. The 100 μl aliquots of 15-LOX-1 were stored at -20 for further experiments.
15-LOX-1 recombinant enzyme inhibition assay
The 15-LOX-1 inhibition assay has been detailed previously. Briefly, the conversion of linoleic acid to hydroperoxy-(9Z,11E)-octadecadienoic acid (λmax of 234 nm) was used to determine the activity of the 15-LOX-1 enzyme. The conversion rate was the slope of UV-absorbance at 234 nm overtime at the […]
To determine the IC50 of probes, the cell lysate was pre-diluted in LOX assay buffer at a ratio of 1:160. The inhibition assay was done in an F-bottom UV-STAR 96-well plate, in which 50 µl of the diluted enzyme was incubated with 140 µl of a probe diluted in LOX assay buffer for 10 min at room temperature (RT). Later 10 µl of 500 µM linoleic acid dissolved in ethanol was added to the plate to reach a final concentration of 25 µM. The UV-absorbance at 234 nm was determined by a BioTek Synergy H1 plate reader (BioTek, Winooski, VT, USA) . The slope of the 15-LOX-1 sample untreated with the probe was set as 100%, while the slope of the BL21 control sample was set as 0%.
For the determination of enzyme kinetics, a series concentration of linoleic acid was used. Fifty µl of pre-diluted 15-LOX-1 enzyme was incubated with 140 µl of probe solution at a fixed concentration for 10 min at RT. Subsequently, 10 µl of a series concentration of linoleic acid was added to a final concentration ranging from 10 µM to 100 µM. The conversion rate was calculated as the same as […]
described in the IC50 determination assay. Michaelis-Menten plots, Lineweaver-Burk plots, Km, and Vmax, are generated using GraphPad Prism 8.3.0. […]

Row | SMILES | Hill-slope | IC50 | Mode of inhibition (Lineweaver–Burk plots) (Km constant, Vmax decreases with inhibitor concentration)
1 | O=c1cc(-c2ccccc2)oc2cc(O)c(O)c(O)c12 [Baicalein] | much higher | – | –
2 | CCCCCC#CCC#CCOC(=O)CCCC[C@@H]1SC[C@@H]2NC(=O)N[C@@H]21 [Labelox B (3)] | – | 0.62 µM and 0.6 µM | non‐competitive LOX inhibition
3 | c1ccc2c(c1)SCc1c-2[nH]c2ccccc12 [PD146176] | 1 | ~4 µM | –
